Read-outs that look alike come from different tables or passages of the source.
Columns and labels:
[1] = test system: corneal endothelial cells; conditions: for Avg. % KI67 (+) Cells: 24 hr pre-incubation in mitogen-containing medium, n = 2-3 donor corneas
Procedure: (§1) Twenty-one human corneas were obtained from donors of about 52-75 years of age (Avg.=65.1 years old). Whole corneas were usually cut in quarters to increase sample size. In some cases, whole corneas were used as controls. Corneal pieces were placed endothelial-side up in individual wells of a 24-well tissue culture plate (Falcon, Lincoln Park, N.J.). Pieces were incubated for about 24 hrs in Medium-199 containing 10% fetal bovine serum (FBS), 10 ng/ml epidermal growth factor (EGF) (Upstate Biotechnologies, Lake Placid, N.Y.), 20 ng/ml fibroblast growth factor(FGF) (pituitary-derived, Biomedical Research Technologies, Stoughton, Mass.), and […] gentamicin to stabilize the endothelium prior to study. Ethylenediamine tetraacetic acid (e.g., di-sodium EDTA.2 H2O) was prepared in Hank's Balanced Salt Solution (HBSS) without calcium chloride, magnesium chloride, or magnesium sulfate: Life Technologies, Grand Island, N.Y.), adjusted to pH7.4, and added to the culture medium at a final concentration of 0.02, 0.2, or 2.0 mg/ml. Corneas were treated with EDTA for 10, 30, or 60 min and then returned to culture medium for up to 96 hrs. Negative controls for EDTA treatment included exposing corneal pieces to all manipulations and incubation conditions, including 1 hour in HBSS, but without EDTA. All corneas were maintained at 37° C. in a 5% carbon dioxide, humidified atmosphere until removal for analysis of cell cycle progression.
Immunolocalization was carried out using the same antibodies and protocols as described previously for ZO-1 (10) and Ki67 (19). Corneal pieces stained for Ki67 were mounted in medium containing propidium iodide (PI: Vector Laboratories, Inc., Burlingame, Calif.) to visualize all nuclei. In some cases, samples were double-stained for both Ki67 and ZO-1. Slides were viewed using a Leica TCS 4D confocal microscope equipped with a Leitz DMRBE laser and SCANware 4.2 software (Leica Lasertechnik, Heidelberg, Germany). Images were collected from the central region of the corneal pieces away from the cut edges using a 16×, 40×, or 100×-oil immersion lens. Laser power and gain controls were adjusted to achieve an optimal range of output signal intensity for each channel. Confocal images were collected and micrographs were printed using Photoshop software v4.0 (Adobe Systems, Inc., San Jose, Calif.). For some micrographs, the printing contrast was adjusted to provide a clearer image.
Fluorescence confocal immunocytochemistry for Ki67 was used to evaluate corneal endothelial cells for their ability to enter and complete the cell cycle (i.e., cell proliferation or mitosis). All nuclei were stained with PI. Positive Ki67 staining patterns indicated the presence of actively cycling cells and also acted as markers for specific phases of the cell cycle. Completion of the cell cycle was determined by observation of mitotic figures stained with Ki67. Three representative confocal micrographs were taken per corneal quarter using a 40×-objective lens. An NIH Image v1.62 software program was used to count total PI-stained nuclei, total Ki67-positive cells, and cells in the G1-phase, S/G2-phase, or M-phase of the cell cycle. Cells were counted in five […] areas of each micrograph (=15 areas counted per corneal piece). Counts were averaged and the percentage of actively cycling cells and of cells in each phase of the cell cycle was calculated. Each study was conducted using corneas from 2-3 different donors. Statistical comparisons were made by a paired Student's t-test using a StatView v4.11 software program (Abacus Concepts, Inc., Berkeley, Calif.). Results reported in Table 1 were expressed as percentage of Ki67-positive cells +/−SD.

[2] = test system: corneal endothelial cell-cell contacts
Procedure: as §1, with “All corneas were maintained at 37° C. in a 5% carbon dioxide, humidified atmosphere until removal for analysis of cell cycle progression.” left out

## O=C(O)CN(CCN(CC(=O)O)CC(=O)O)CC(=O)O [EDTA, ethylenediaminetetraacetic acid]
[1]; 24 hours pre-incubation, 0.2 mg/ml EDTA for 60 min, single donor
  time to complete the cell cycle after EDTA treatment (mitotic figures): approximately 48 hrs
[1]; EDTA 0.2 mg/ml, 30 minutes
  Avg. % KI67 (+) Cells: 8.67%
[1]; EDTA 0.2 mg/ml, 60 minutes
  Avg. % KI67 (+) Cells: 11.99%
[1]; EDTA 2.0 mg/ml for 60 minutes, after preincubation in culture medium
  percent of the cells stimulated to proliferate: 16-18%
[1]; EDTA 2.0 mg/ml, 30 minutes
  Avg. % KI67 (+) Cells: 14.28%
[1]; EDTA 2.0 mg/ml, 60 minutes
  Avg. % KI67 (+) Cells: 17.18%
[1]; intact endothelial monolayer treated with EDTA and mitogens
  percent of the cell population that entered the cell cycle: around 17%
[1]; pre-incubation in mitogen-containing medium, then EDTA, 48 hour post-incubation
  cell cycle progression (Ki67 stained nuclei and mitotic figures): did promote cell cycle progression
[1]; up to 2.0 mg/ml EDTA, no prior or simultaneous growth factor, post-incubated 48 hours in mitogen-containing medium
  proliferation (Ki67 staining) with EDTA alone: did not promote proliferation
[2]; 2.0 mg/ml EDTA for 60 minutes
  effect on cell-cell contacts (ZO-1 staining): caused cells to become rounded with only thin cytoplasmic strands connecting adjacent cells
[2]; corneal endothelial cells exposed to EDTA
  percent of treated cells with interrupted cell-contacts: at least 15%
